These results are taken from ChEMBL document CHEMBL3352501, “SAR analysis of new anti-TB drugs currently in pre-clinical and clinical development” (Eur J Med Chem, 2014).

Each structure is given as a SMILES string. In brackets after ≈: the same amount, converted by molar mass.

What is called MIC90 is an inhibitory concentration at the 90% level, which refers to growth in some studies and to a panel of isolates in others. Usually MIC stands for the least concentration at which growth counts as inhibited. One may read the bioavailability as dose-corrected exposure relative to a reference, in per cent.

Data set [1] deals with Mycobacterium tuberculosis. Put plainly: Antitubercular activity against Mycobacterium tuberculosis assessed as growth inhibition. It counts as functional.
Data set [2] deals with Mycobacterium tuberculosis. Put plainly: Antitubercular activity against Mycobacterium tuberculosis H37Rv assessed as growth inhibition. In kind it is functional.
The subject of data set [3] is Mycobacterium tuberculosis. Put plainly: Antitubercular activity against Mycobacterium tuberculosis infected in mouse assessed as reduction in colony formation at 20 mg/kg for 20 days. It counts as functional.
The subject of data set [4] is Mycobacterium tuberculosis. As to the kind of experiment: Antitubercular activity against Mycobacterium tuberculosis H37Rv assessed as growth inhibition in presence of […] clavulanate. In kind it is functional.
The subject of data set [5] is Mycobacterium tuberculosis. As to the kind of experiment: Antitubercular activity against Mycobacterium tuberculosis infected in mouse J774A.1 assessed as reduction in bacterial count. It counts as functional.
Data set [6] deals with Mycobacterium tuberculosis. Put plainly: Antitubercular activity against XDR clinical isolates Mycobacterium tuberculosis […] assessed as growth inhibition in presence of […] clavulanate. It counts as functional.
The subject of data set [7] is Mycobacterium tuberculosis. Put plainly: Antitubercular activity against drug-susceptible Mycobacterium tuberculosis clinical isolates assessed as growth inhibition. It counts as functional.
Data set [8] deals with Mycobacterium tuberculosis. Put plainly: Antitubercular activity against Mycobacterium tuberculosis assessed as growth inhibition by alamar blue assay. It counts as functional.
For data set [9], the system named is Mycolicibacterium smegmatis. As to the kind of experiment: Antimicrobial activity against Mycobacterium smegmatis. In kind it is functional.
Data set [10] deals with Mycolicibacterium smegmatis. As to the kind of experiment: Antimicrobial activity against Mycobacterium smegmatis assessed as intracellular bacterial killing. In kind it is functional.
The next data set concerns Mycobacterium avium. As to the kind of experiment: Antimycobacterial activity against Mycobacterium avium assessed as growth inhibition. In kind it is functional.
Data set [11] in a line: Oral bioavailability in dog. It counts as ADME, organism-based, Canis lupus familiaris. Particulars: in vivo.

Regarding `COc1c(N2CC3(CC3)[C@](C)(N)C2)c(F)cc2c(=O)c(C(=O)O)cn([C@@H]3C[C@@H]3F)c12`, in [1], the MIC90 came out at 0.06 µg/mL (≈ 0.143 µM).

Turning to `COc1ncccc1Nc1cc2nc3ccccc3n(-c3ccc(OC(F)(F)F)cc3)c-2c/c1=N\C1CCC(OC)CC1` (stereo not drawn), the MIC in [2] is over 25 µg/mL. Further, the log10cfu in data set [3] turned out to be 4.66.

`C[C@@]1(COc2ccc(N3CCC(Oc4ccc(OC(F)(F)F)cc4)CC3)cc2)Cn2c([N+](=O)[O-])cnc2O1`: the MIC in data set [2] was 0.012 µg/mL.

Consider `O=c1nc(N2CCN(CCC3CCCCC3)CC2)sc2c([N+](=O)[O-])cc(C(F)(F)F)cc12`, for which, in [2], the MIC was 0.00019 µg/mL.

For `CCCCCCCN1CCN(c2nc(=O)c3cc(C(F)(F)F)cc([N+](=O)[O-])c3s2)CC1`, in [2], the MIC turned out to be 0.00019 µg/mL.

For `O=c1nc(N2CCN(CCCCOc3ccccc3)CC2)sc2c([N+](=O)[O-])cc(C(F)(F)F)cc12`, the minimal inhibitory concentration (MIC) in [2] was found to be 0.00019 µg/mL.

Regarding `O=c1nc(N2CCN(CCCCc3ccccc3)CC2)sc2c([N+](=O)[O-])cc(C(F)(F)F)cc12`, in data set [2], the MIC stood at 0.00019 µg/mL.

For the molecule `CC1(C)S[C@@H]2[C@H](NC(=O)[C@H](N)c3ccc(O)cc3)C(=O)N2[C@H]1C(=O)O` [AMOXICILLIN], the minimal inhibitory concentration (MIC) in data set [4] amounted to 0.32 µg/mL; in data set [6] it was 0.23 µg/mL. Further, the “fold change (FC)” value in data set [5] is given as 1.5.

Turning to `COc1nc2ccc(Br)cc2cc1[C@@H](c1ccccc1)[C@@](O)(CCN(C)C)c1cccc2ccccc12` [BEDAQUILINE], the minimum inhibitory concentration (MIC) in [7] turned out to be 0.002 µg/mL (≈ 0.0036 µM). Besides, in data set [8], the MBC90 stood at 2 µg/mL (≈ 3.6 µM) and the WCC90 worked out at 1 µg/mL.

Regarding `C[C@H]1COC2(CCN(c3nc(=O)c4cc(C(F)(F)F)cc([N+](=O)[O-])c4s3)CC2)O1` [BTZ-043], the minimum inhibitory concentration (MIC) was 0.001 µg/mL in data set [2], 0.004 µg/mL (≈ 0.00927 µM) in [9] and under 0.01 µg/mL in [10].

Regarding `CC(C)/N=c1\cc2n(-c3ccc(Cl)cc3)c3ccccc3nc-2cc1Nc1ccc(Cl)cc1` [CLOFAZIMINE], the minimal inhibitory concentration (MIC) worked out at 1.21 µg/mL in data set [2] and 0.12 µg/mL (≈ 0.253 µM) in data set [1]. Besides, the log10cfu in data set [3] is on record as 6.33.

As for `NNC(=O)c1ccncc1` [ISONIAZID], the minimum inhibitory concentration (MIC) in [10] came to 0.1 µg/mL (≈ 0.729 µM).

For `CC(=O)NC[C@H]1CN(c2ccc(N3CCOCC3)c(F)c2)C(=O)O1` [LINEZOLID], in data set [1], the minimal inhibitory concentration (MIC) is under 1 µg/mL.

As for `O=c1nc(N2CCN(CC3CCCCC3)CC2)sc2c([N+](=O)[O-])cc(C(F)(F)F)cc12` [MACOZINONE], the minimum inhibitory concentration (MIC) in data set [2] is 0.00019 µg/mL.

Consider `O=C([C@@H](O)CO)N1CC=C(c2c(F)cc(N3C[C@H](COc4ccon4)OC3=O)cc2F)CC1` [POSIZOLID], for which the MIC in [2] came out at 1 µg/mL.

For the molecule `O=[N+]([O-])c1cn2c(n1)OC[C@@H](OCc1ccc(OC(F)(F)F)cc1)C2` [PRETOMANID], in [2], the MIC worked out at 0.13 µg/mL.

In the case of `CO[C@H]1/C=C/O[C@@]2(C)Oc3c(C)c(O)c4c(c3C2=O)C2=NC3(CCN(CC(C)C)CC3)NC2=C(NC(=O)/C(C)=C\C=C\[C@H](C)[C@H](O)[C@@H](C)[C@@H](O)[C@@H](C)[C@H](OC(C)=O)[C@@H]1C)C4=O` [RIFABUTIN], the results for the MIC (in [2]; in the data set with Mycobacterium avium) were 0.015 µg/mL and 0.06 µg/mL (≈ 0.0708 µM), respectively.

Turning to `CO[C@H]1/C=C/O[C@@]2(C)Oc3c(C)c(O)c4c(O)c(c(/C=N/N5CCN(C)CC5)c(O)c4c3C2=O)NC(=O)/C(C)=C\C=C\[C@H](C)[C@H](O)[C@@H](C)[C@@H](O)[C@@H](C)[C@H](OC(C)=O)[C@@H]1C` [RIFAMPIN], the MIC in [10] is under 1 µg/mL.

For the molecule `CC(C)=CCC/C(C)=C/CNCCNC1C2CC3CC(C2)CC1C3` (stereo not drawn) [SQ109], the MIC in data set [7] was found to be 0.2 µg/mL (≈ 0.605 µM). This molecule had a bioavailability in data set [11] of 2.4%.

With `CC(=O)NC[C@H]1CN(c2ccc(N3CCSCC3)c(F)c2)C(=O)O1` [SUTEZOLID], the minimal inhibitory concentration (MIC) in data set [1] stood at 0.125 µg/mL (≈ 0.354 µM).

In the case of `CCc1nc2ccc(Cl)cn2c1C(=O)NCc1ccc(N2CCC(c3ccc(OC(F)(F)F)cc3)CC2)cc1` [TELACEBEC], the minimum inhibitory concentration (MIC) in data set [2] was 2.7 nM. Besides, in data set [6], the MIC90 was under 0.43 nM.
